Source: patent publication US20260315434A1, “USE OF GUAIACOL SESQUITERPENE LACTONE DERIVATIVES” (NANJING UNIVERSITY OF CHINESE MEDICINE, priority 2023, published 2026)
Like-named read-outs stand apart in the source and are kept apart here. Marks after values point to notes of the source that are not given here.

Legend:
H22 cells = assay: Antitumor effect in H22 mouse hepatocellular carcinoma subcutaneous xenograft model; type: in vivo, BALB/c mice; conditions: for Tumor Suppression Rate (%) / Tumor weight: 40 μmol/kg/day, H22 xenograft
T cells / MDSCs = assay: Promotion of T cell proliferation in a co-culture model of MDSCs and T cells; type: cell-based, mouse; conditions: for activation at 1 µM: Mus musculus, T-cell, 12 h
Outline: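 Bone-marrow MDSCs, after compound treatment, were co-cultured 48 h at 1:1 with CFDA-SE-labelled (10 μM solution), activated splenic T cells. Proliferation of CD3+ T cells was read by flow cytometry.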

CT26 cells = assay: Antitumor effect in CT26 colon cancer mouse subcutaneous model; type: in vivo, BALB/c mice; conditions: for Tumor inhibition rate (%) / Tumor weight: 80 μmol/kg/day, CT26
T cells = assay: Proportion of T cells in tumor and spleen of H22 xenograft mice (flow cytometry); type: in vivo, BALB/c mice; conditions: for Spleen T cells (%) / Tumor T cells (%): 40 μmol/kg/day, oral, 2 weeks, flow cytometry
Protocol: Once all tumors were dissected, nail-sized tumor pieces were transferred to 1.5 mL Eppendorf tubes and minced with scissors. Transfer the minced tumor tissue suspension to a 15 mL centrifuge tube containing 3-5 mL of digestive enzymes (Collagenase IV 1 mg/mL, Hyaluronidase 1 mg/mL, DNase 120 U/mL). Incubate at 37° C. on a shaking incubator at 200 rpm for 1 hour. After digestion, pass the mixture through a 200-mesh sieve to obtain the tumor cell suspension. Centrifuge the resulting tumor suspension at 1600 rpm for 5 min, aspirate the supernatant, resuspend cells in 1 mL of 1×PBS per tube. Transfer the cell suspension to a 1.5 mL Eppendorf tube, centrifuge at 1600 rpm for 5 min, remove the supernatant, resuspend cells in 100 μL of 1×PBS per tube, add 1 μL of dead/live dye to each tube, mix thoroughly, and incubate at room temperature in the dark for 15 min. […] Position the spleen on a 200-mesh cell strainer. Gently press the spleen using a 10 mL syringe needle. […] Transfer the splenocyte suspension into a 15 mL centrifuge tube. Centrifuge at 1600 rpm for 5 min to collect cells. Wash once with 1×PBS. Add 3 mL red blood cell lysis buffer (diluted with ddH2O) to each tube and incubate for 5 min. After lysis, add 10 mL 1×PBS to each tube to terminate lysis. Centrifuge at 1600 rpm for 5 min. Add 1 mL 1×PBS to each 15 mL centrifuge tube, transfer to 1.5 mL EP tubes, and centrifuge at 1600 rpm for 5 min. Add 1×PBS to each tube containing stained tumor cells and lysed spleen cells for one wash, centrifuge at 1600 rpm for 5 min, and remove the supernatant. Resuspend tumor cells and spleen cells separately in 100 μL 1×PBS. Add 1 μL FcX™ antibody to each tube and incubate at room temperature in the dark for 10 min. After incubation, sequentially add 1 μL each of CD45, CD3, and CD8 antibodies to each tube. Incubate at 4° C. in the dark for 30 min. After staining, wash once with 1 mL PBS. Centrifuge at 1600 rpm for 5 min. Discard the supernatant. Resuspend cells in 300 μL 1×PBS. Filter the cell suspension into a flow cytometry tube and proceed to instrument analysis.

[1] = system: inflammatory cytokines (TNF, IL-6, IL-1) in renal tissue; assay: Folic acid-induced acute kidney injury, renal inflammatory factor mRNA; type: in vivo, C57BL/6 mice; conditions: folic acid acute model
Protocol: (§1) Except for the normal group, all other mice were administered folic acid (250 mg/kg) dissolved in 0.9% NaHCO3 solution via intraperitoneal injection to establish an acute kidney injury model.
(§2) The blood was allowed to stand at room temperature for 2 hours, then centrifuged at 3000 rpm for 20 minutes. Serum was aspirated, aliquoted, and stored at −70° C. for future use. Following blood collection, euthanize mice by cervical dislocation. Perform laparotomy to remove kidneys, dissect out perirenal fat and capsules. […] Paraffin-embedded specimens undergo HE staining; remaining tissue is stored at −70° C. for future use.

[2] = system: inflammatory cytokines (TNF, IL-6, IL-1) in renal tissue; assay: UUO chronic kidney injury, renal inflammatory factor mRNA; type: in vivo, C57BL/6 mice; parameters: unit not given here; conditions: UUO chronic model
Source text: (§3) Chronic Kidney Injury: Mice were randomly divided into five groups. […] Except for the sham-operated mice in the normal group (where only the left ureter was exposed without further manipulation), all other mice underwent unilateral ureteral ligation to establish a chronic kidney injury model as follows: The abdominal skin was disinfected with iodine solution followed by alcohol. An incision was made, and the abdominal layers were dissected sequentially. The left ureter was fully exposed and dissected. A double ligation was performed at the bladder-proximal end of the left ureter using absorbable suture material, followed by closure.
as §2

[3] = system: fibrosis-related factors (α-Sma, Col1a1, Tgfb1) in kidney tissue; assay: Folic acid-induced kidney injury, renal fibrosis-related factor mRNA; type: in vivo, C57BL/6 mice; conditions: folic acid model
Protocol: as §1, §2

[4] = system: fibrosis-related factors (α-Sma, Col1a1, Tgfb1) in kidney tissue; assay: UUO chronic kidney injury, renal fibrosis-related factor mRNA; type: in vivo, C57BL/6 mice; parameters: unit not given here; conditions: UUO chronic model
Source text: as §3, §2

[5] = compared with solvent control, result in words

C=C1C(=O)O[C@@H]2[C@H]3C(C)=CC[C@@]34O[C@@]4(C)CC[C@@H]12 [Arg, Arglabin, reference compound]
tumor-inhibiting effect, H22 (H22 cells; mouse, in vivo, po): tumor-inhibiting effects
activation at 1 µM (T cells / MDSCs; read-out: T-cell proliferation rate (%)): > 40%
tumor-inhibiting effect, CT26 (CT26 cells; mouse, in vivo, po): tumor-inhibiting effects
proportion of T cells in tumor tissues and spleens (T cells; mouse, in vivo): significantly increased

CN(C)C[C@@H]1C(=O)O[C@H]2[C@H]1CC[C@@]1(C)C[C@]13CC[C@@](C)(O)[C@H]23 [Compound 20]
Tumor Suppression Rate (%) (H22 cells; oral, 2 weeks): 70.86%
Tumor weight (H22 cells; oral, 2 weeks): 4.88 ± 0.87 g
tumor-inhibiting effect, H22 (H22 cells; oral, 2 weeks, result in words): tumor-inhibiting effects
Tumor inhibition rate (%) (CT26 cells; oral, 3 weeks): 43.36%*
Tumor weight (CT26 cells; oral, 3 weeks): 4.62 ± 1.29 g
tumor-inhibiting effect, CT26 (CT26 cells; oral, 3 weeks, result in words): tumor-inhibiting effects
Il1 mRNA expression, kidney ([1]; 1 mg/kg oral, 1 mg/kg): 1.06 ± 0.33
Il6 mRNA expression, kidney ([1]; 1 mg/kg oral, 1 mg/kg): 1.55 ± 0.28
Tnf mRNA expression, kidney ([1]; 1 mg/kg oral, 1 mg/kg): 2.31 ± 0.72
Il1 mRNA expression, kidney ([2]; 1 mg/kg oral, 1 mg/kg): 2.77 ± 0.40
Il6 mRNA expression, kidney ([2]; 1 mg/kg oral, 1 mg/kg): 3.69 ± 1.26
Tnf mRNA expression, kidney ([2]; 1 mg/kg oral, 1 mg/kg): 5.09 ± 0.66
Col1a1 mRNA expression, kidney ([3]; 1 mg/kg oral, 1 mg/kg): 1.18 ± 0.15
Tgfb1 mRNA expression, kidney ([3]; 1 mg/kg oral, 1 mg/kg): 0.98 ± 0.27
α-Sma mRNA expression, kidney ([3]; 1 mg/kg oral, 1 mg/kg): 1.11 ± 0.17
Col1a1 mRNA expression, kidney ([4]; 1 mg/kg oral, 1 mg/kg): 7.30 ± 0.90
Tgfb1 mRNA expression, kidney ([4]; 1 mg/kg oral, 1 mg/kg): 1.44 ± 0.21
α-Sma mRNA expression, kidney ([4]; 1 mg/kg oral, 1 mg/kg): 1.26 ± 0.18
Spleen T cells (%) (T cells): 37.19 ± 6.99 %
Tumor T cells (%) (T cells): 29.44 ± 6.07 %
proportion of T cells in tumor tissues and spleens (T cells; [5]): significantly increased

CN(C)C[C@@H]1C(=O)O[C@H]2[C@H]1CC[C@@]1(C)C[C@]13CC[C@@](C)(O)[C@H]23 [Compound 21]
T-cell proliferation rate (%) (T cells / MDSCs; 1 μM, MDSCs treated 12 hours, co-culture of MDSCs and T cells, compared to the control group): + (T-cell proliferation rate within the 0-20% range compared to the control group)
Il1 mRNA expression, kidney ([1]; 0.1 mg/kg oral): 2.07 ± 0.38
Il6 mRNA expression, kidney ([1]; 0.1 mg/kg oral): 6.47 ± 0.53
Tnf mRNA expression, kidney ([1]; 0.1 mg/kg oral): 2.60 ± 0.62
Il1 mRNA expression, kidney ([1]; 1 mg/kg oral, 1 mg/kg): 1.45 ± 0.23
Il6 mRNA expression, kidney ([1]; 1 mg/kg oral, 1 mg/kg): 5.61 ± 2.10
Tnf mRNA expression, kidney ([1]; 1 mg/kg oral, 1 mg/kg): 2.42 ± 0.35
Il1 mRNA expression, kidney ([2]; 0.1 mg/kg oral): 5.32 ± 0.56
Il6 mRNA expression, kidney ([2]; 0.1 mg/kg oral): 14.31 ± 6.01
Tnf mRNA expression, kidney ([2]; 0.1 mg/kg oral): 7.10 ± 1.93
Il1 mRNA expression, kidney ([2]; 1 mg/kg oral, 1 mg/kg): 3.55 ± 0.50
Il6 mRNA expression, kidney ([2]; 1 mg/kg oral, 1 mg/kg): 5.61 ± 2.10
Tnf mRNA expression, kidney ([2]; 1 mg/kg oral, 1 mg/kg): 7.53 ± 0.68
Col1a1 mRNA expression, kidney ([3]; 0.1 mg/kg oral): 1.58 ± 0.35
Tgfb1 mRNA expression, kidney ([3]; 0.1 mg/kg oral): 1.64 ± 0.16
α-Sma mRNA expression, kidney ([3]; 0.1 mg/kg oral): 1.80 ± 0.42
Col1a1 mRNA expression, kidney ([3]; 1 mg/kg oral, 1 mg/kg): 1.20 ± 0.19
Tgfb1 mRNA expression, kidney ([3]; 1 mg/kg oral, 1 mg/kg): 1.09 ± 0.15
α-Sma mRNA expression, kidney ([3]; 1 mg/kg oral, 1 mg/kg): 0.90 ± 0.21
Col1a1 mRNA expression, kidney ([4]; 0.1 mg/kg oral): 11.79 ± 1.18
Tgfb1 mRNA expression, kidney ([4]; 0.1 mg/kg oral): 1.76 ± 0.05
α-Sma mRNA expression, kidney ([4]; 0.1 mg/kg oral): 2.02 ± 0.39
Col1a1 mRNA expression, kidney ([4]; 1 mg/kg oral, 1 mg/kg): 8.27 ± 1.15
Tgfb1 mRNA expression, kidney ([4]; 1 mg/kg oral, 1 mg/kg): 1.53 ± 0.14
α-Sma mRNA expression, kidney ([4]; 1 mg/kg oral, 1 mg/kg): 1.39 ± 0.04

CC1=C2CC[C@@](C)(OC(=O)N3CCCCC3)[C@@H]2[C@H]2OC(=O)[C@@H](CN(C)C)[C@@H]2CC1 [Compound 102]
Tumor Suppression Rate (%) (H22 cells; oral, 2 weeks): 27.99%
Tumor weight (H22 cells; oral, 2 weeks): 6.13 ± 1.48 g
tumor-inhibiting effect, H22 (H22 cells; oral, 2 weeks, result in words): tumor-inhibiting effects
Spleen T cells (%) (T cells): 31.69 ± 6.44 %
Tumor T cells (%) (T cells): 20.86 ± 4.15 %
proportion of T cells in tumor tissues and spleens (T cells; [5]): significantly increased

CC1=C2CC[C@@](C)(OC(=O)N3CCCC3)[C@@H]2[C@H]2OC(=O)[C@@H](CN3CCCC3)[C@@H]2CC1 [Compound 103]
Tumor Suppression Rate (%) (H22 cells; oral, 2 weeks): 60.34%
Tumor weight (H22 cells; oral, 2 weeks): 5.02 ± 0.48 g
tumor-inhibiting effect, H22 (H22 cells; oral, 2 weeks, result in words): tumor-inhibiting effects
activation at 1 µM (T cells / MDSCs; read-out: T-cell proliferation rate (%), 1 μM, MDSCs treated 12 hours, co-culture of MDSCs and T cells, compared to the control group): 20 to 40%
Tumor inhibition rate (%) (CT26 cells; oral, 3 weeks): 39.72%*
Tumor weight (CT26 cells; oral, 3 weeks): 4.86 ± 0.72 g
tumor-inhibiting effect, CT26 (CT26 cells; oral, 3 weeks, result in words): tumor-inhibiting effects
Il1 mRNA expression, kidney ([1]; 0.1 mg/kg oral): 2.83 ± 1.00
Il6 mRNA expression, kidney ([1]; 0.1 mg/kg oral): 27.33 ± 11.81
Il1 mRNA expression, kidney ([1]; 1 mg/kg oral): 2.79 ± 1.31
Il6 mRNA expression, kidney ([1]; 1 mg/kg oral): 23.47 ± 6.54
Il1 mRNA expression, kidney ([1]; 10 mg/kg oral): 1.65 ± 1.00
Il6 mRNA expression, kidney ([1]; 10 mg/kg oral): 17.94 ± 9.61
Il1 mRNA expression, kidney ([2]; 0.1 mg/kg oral): 5.45 ± 2.35
Il6 mRNA expression, kidney ([2]; 0.1 mg/kg oral): 52.89 ± 40.54
Tnf mRNA expression, kidney ([2]; 0.1 mg/kg oral): 4.21 ± 0.82
Il1 mRNA expression, kidney ([2]; 1 mg/kg oral): 3.49 ± 0.93
Il6 mRNA expression, kidney ([2]; 1 mg/kg oral): 32.19 ± 25.90
Tnf mRNA expression, kidney ([2]; 1 mg/kg oral): 3.80 ± 0.40
Il1 mRNA expression, kidney ([2]; 10 mg/kg oral): 3.19 ± 0.85
Il6 mRNA expression, kidney ([2]; 10 mg/kg oral): 31.08 ± 18.80
Tnf mRNA expression, kidney ([2]; 10 mg/kg oral): 3.06 ± 0.47
Col1a1 mRNA expression, kidney ([3]; 0.1 mg/kg oral): 2.45 ± 0.63
α-Sma mRNA expression, kidney ([3]; 0.1 mg/kg oral): 3.50 ± 1.91
Col1a1 mRNA expression, kidney ([3]; 1 mg/kg oral): 2.25 ± 0.58
α-Sma mRNA expression, kidney ([3]; 1 mg/kg oral): 3.03 ± 0.99
Col1a1 mRNA expression, kidney ([3]; 10 mg/kg oral): 1.93 ± 0.41
α-Sma mRNA expression, kidney ([3]; 10 mg/kg oral): 1.55 ± 0.61
Col1a1 mRNA expression, kidney ([4]; 0.1 mg/kg oral): 10.58 ± 2.78
α-Sma mRNA expression, kidney ([4]; 0.1 mg/kg oral): 6.33 ± 0.96
Col1a1 mRNA expression, kidney ([4]; 1 mg/kg oral): 11.02 ± 2.81
α-Sma mRNA expression, kidney ([4]; 1 mg/kg oral): 6.01 ± 1.21
Col1a1 mRNA expression, kidney ([4]; 10 mg/kg oral): 9.31 ± 2.28
α-Sma mRNA expression, kidney ([4]; 10 mg/kg oral): 4.86 ± 0.99
Spleen T cells (%) (T cells): 34.22 ± 4.88 %
Tumor T cells (%) (T cells): 27.62 ± 5.12 %
proportion of T cells in tumor tissues and spleens (T cells; [5]): significantly increased
